From publication PMC5522258 (Oncotarget, 2017)
Values joined by “and” are separate entries in the source; they are usually repeats but may differ in a detail not shown here. Equal entries are not always repeated. Where two headings read alike, the source gives them in different places.

Key:
UGT1A1 [1] = target: T1, UGT1A1 (Homo sapiens, UniProt P22309); experiment: SN-38 glucuronidation (SN-38G formation) by human recombinant UGT1A1, with and without HDACi; format: in vitro ADME; conditions: for decrease of CLint: p < 0.05
T1 sequence (P22309 26-533): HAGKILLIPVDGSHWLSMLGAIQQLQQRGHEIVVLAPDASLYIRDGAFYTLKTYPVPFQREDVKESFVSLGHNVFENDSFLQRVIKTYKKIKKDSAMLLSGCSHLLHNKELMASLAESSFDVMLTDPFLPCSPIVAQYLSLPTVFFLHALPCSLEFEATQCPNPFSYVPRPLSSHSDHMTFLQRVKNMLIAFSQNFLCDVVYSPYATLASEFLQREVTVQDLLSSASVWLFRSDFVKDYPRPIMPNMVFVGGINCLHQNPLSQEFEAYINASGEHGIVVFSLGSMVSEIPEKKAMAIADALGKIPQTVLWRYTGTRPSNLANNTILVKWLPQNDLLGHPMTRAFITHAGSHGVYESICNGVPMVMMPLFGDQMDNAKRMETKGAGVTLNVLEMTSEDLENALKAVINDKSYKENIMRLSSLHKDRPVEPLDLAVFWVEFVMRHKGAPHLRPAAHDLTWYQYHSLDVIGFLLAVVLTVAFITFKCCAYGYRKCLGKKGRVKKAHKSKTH
Experimental: (§1) UGT1A1, UGT1A6 and UGT1A7 were chosen since these UGTs could be responsible for glucuronidating panobinostat.
(§2) All experiments were carried out in triplicate. […] Data were considered statistically significant when p < 0.05.

UGT1A1 [2] = experiment: SN-38 glucuronidation by pooled HLMs, 50 donor pool (wild type, 6/6), with and without belinostat; format: in vitro ADME, human; conditions: human, pH 7.4; 50 donor pool HLMs (6/6), without belinostat; read-out: intrinsic clearance (CLint) of SN-38G formation
Experimental: as §2

[3] = tested on: pooled HLMs (50 donor pool, wild-type 6/6 genotype); experiment: as above; format: in vitro ADME, human; conditions: for decrease of CLint: 50 donor pool HLMs (6/6), p < 0.05
Experimental: as §2

UGT1A9 = target: T2, UGT1A9 (Homo sapiens, UniProt O60656); experiment: SN-38 glucuronidation by human recombinant UGT1A9, with and without vorinostat; format: in vitro ADME
T2 construct: purchased BD Gentest
T2 sequence (O60656 26-530): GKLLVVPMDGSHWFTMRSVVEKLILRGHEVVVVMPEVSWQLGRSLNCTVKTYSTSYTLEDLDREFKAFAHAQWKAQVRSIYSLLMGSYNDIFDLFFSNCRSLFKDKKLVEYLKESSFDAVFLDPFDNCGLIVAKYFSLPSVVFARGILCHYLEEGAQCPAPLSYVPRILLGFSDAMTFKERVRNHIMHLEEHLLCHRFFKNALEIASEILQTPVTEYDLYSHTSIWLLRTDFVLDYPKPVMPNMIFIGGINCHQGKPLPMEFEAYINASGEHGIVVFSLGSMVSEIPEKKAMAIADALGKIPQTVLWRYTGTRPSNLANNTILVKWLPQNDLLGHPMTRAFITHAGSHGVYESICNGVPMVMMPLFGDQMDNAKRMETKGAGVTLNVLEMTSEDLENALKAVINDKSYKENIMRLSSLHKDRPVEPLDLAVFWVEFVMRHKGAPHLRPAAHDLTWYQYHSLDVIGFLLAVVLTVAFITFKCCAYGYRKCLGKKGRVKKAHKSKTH
Experimental: as §2

[4] = more potent than irinotecan; cited from earlier work
UGT1A1 [5] = target: T1, UGT1A1; experiment: in vitro; conditions: pooled liver microsomes, UGT1A1*1*28 (6/7) genotype, pH 7.4
Experimental: (§3) Ten microliter aliquots were injected into a high-performance liquid chromatograph assay system (Agilent 1100, Germany) with tandem mass spectrometric detection (API 4000 triple-quadrupole mass spectrometer; AB Sciex, Concord, Canada). Baseline separation of the analytes was achieved on the Alltima C18 (150 mm x 2.1 mm, 5 μm) column. The mobile phase A and B consisted of 100% acetonitrile and 0.1% formic acid, respectively.
(§4) After pre-incubation, the reaction was started with the addition of UGT1A1 or pooled HLMs (0.5 mg/mL). Reaction mixtures were incubated at 37°C for 30 minutes.
(§5) All experiments were carried out in triplicate. SN-38G formation velocity (ν) was calculated as Cm, 30 min/incubation time/microsomal protein concentration, where Cm, 30 min was the metabolite concentration after 30 min incubation. Plots of substrate concentration, S (X axis) versus ν (Y axis) were then constructed. Km and Vmax were calculated by the Michaelis-Menten Equation 1 below using GraphPad software v5.01 (GraphPad Software, Inc., San Diego, CA, USA). The kinetic parameter Vmax/Km, which is equivalent to intrinsic clearance (CLint) (Equation 2), was derived from the slope of the plot of the rate of product formation versus substrate concentration. Comparisons of CLint between two groups were performed by a paired t-test.

UGT1A1 [6] = target: T1, UGT1A1; experiment: in vitro; conditions: pooled liver microsomes, UGT1A1*28*28 (7/7) genotype, pH 7.4
Experimental: as §3, §4, §5

[7] = target: T3, pooled HLMs (UGT1A1*1*28 allelic variant, 6/7) (Homo sapiens, UniProt P22309)
T3 sequence (P22309 26-533): T1 sequence (P22309 26-533)
Experimental: as §3, §4, §5

[8] = target: T4, pooled HLMs (UGT1A1*28*28 allelic variant, 7/7) (Homo sapiens, UniProt P22309)
T4 sequence (P22309 26-533): T1 sequence (P22309 26-533)
Experimental: as §3, §4, §5

[9] = cited from earlier work
UGT1A6 = target: T5, UGT1A6 (Homo sapiens, UniProt P19224); experiment: SN-38 glucuronidation by human recombinant UGT1A6, with and without panobinostat; format: in vitro ADME; conditions: UGT1A6, panobinostat 20 and 200 nmol/L; CLint increases insignificant (p > 0.05)
T5 construct: purchased BD Gentest
T5 sequence (P19224 27-532): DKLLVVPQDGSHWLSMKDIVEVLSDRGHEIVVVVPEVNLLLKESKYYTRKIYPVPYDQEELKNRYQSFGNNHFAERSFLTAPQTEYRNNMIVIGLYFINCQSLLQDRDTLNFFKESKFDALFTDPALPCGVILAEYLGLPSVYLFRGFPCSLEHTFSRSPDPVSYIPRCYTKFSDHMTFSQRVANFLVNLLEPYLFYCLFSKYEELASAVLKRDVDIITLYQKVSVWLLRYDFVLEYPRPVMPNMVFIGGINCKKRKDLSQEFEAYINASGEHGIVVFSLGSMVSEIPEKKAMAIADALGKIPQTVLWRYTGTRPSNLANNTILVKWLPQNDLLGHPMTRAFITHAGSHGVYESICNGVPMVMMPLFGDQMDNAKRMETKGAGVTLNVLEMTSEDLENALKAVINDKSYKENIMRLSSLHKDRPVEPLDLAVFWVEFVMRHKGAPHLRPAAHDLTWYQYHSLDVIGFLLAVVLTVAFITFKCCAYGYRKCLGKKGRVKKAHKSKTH
Experimental: as §1, §2

UGT1A7 = target: T6, UGT1A7 (Homo sapiens, UniProt Q9HAW7); experiment: SN-38 glucuronidation by human recombinant UGT1A7, with and without panobinostat; format: in vitro ADME; conditions: UGT1A7, panobinostat 20 and 200 nmol/L; CLint increases insignificant (p > 0.05)
T6 construct: purchased BD Gentest
T6 sequence (Q9HAW7 26-530): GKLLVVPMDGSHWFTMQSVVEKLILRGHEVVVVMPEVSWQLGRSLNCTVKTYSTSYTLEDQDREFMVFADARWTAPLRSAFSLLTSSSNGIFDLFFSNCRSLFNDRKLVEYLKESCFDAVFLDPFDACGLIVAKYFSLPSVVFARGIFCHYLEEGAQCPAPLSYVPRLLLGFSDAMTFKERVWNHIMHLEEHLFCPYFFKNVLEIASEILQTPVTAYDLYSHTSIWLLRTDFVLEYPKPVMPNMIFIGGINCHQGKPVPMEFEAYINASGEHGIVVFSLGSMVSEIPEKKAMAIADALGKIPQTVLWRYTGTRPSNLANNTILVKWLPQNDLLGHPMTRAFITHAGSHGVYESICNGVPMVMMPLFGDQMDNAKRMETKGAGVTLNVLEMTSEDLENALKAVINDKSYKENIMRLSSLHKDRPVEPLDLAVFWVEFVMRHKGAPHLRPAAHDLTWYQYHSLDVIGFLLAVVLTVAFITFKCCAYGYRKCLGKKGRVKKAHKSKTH
Experimental: as §1, §2

## CCc1c2c(nc3ccc(O)cc13)-c1cc3c(c(=O)n1C2)COC(=O)[C@]3(O)CC [SN-38, 7-ethyl-10-hydroxycamptothecin]
UGT1A1 [1]; human, pH 7.4, recombinant UGT1A1, without belinostat, read-out: intrinsic clearance (CLint) of SN-38G formation
  microsomal CLint: 21.6 µL/min/mg
UGT1A1 [2]
  microsomal CLint: 81.2 µL/min/mg
[3]; HLMs wild type 6/6, without belinostat
  SN-38 glucuronidation activity (Vmax): 41.13 pmol/min/mg
UGT1A9; human, recombinant UGT1A9, read-out: CLint of SN-38G
  microsomal CLint: 7.48 µL/min/mg
[4]
  potency relative to irinotecan: 100-1000 times
UGT1A1 [5]
  microsomal CLint: 29.2 µL/min/mg
UGT1A1 [6]
  microsomal CLint: 5.4 µL/min/mg

## O=C(/C=C/c1cccc(S(=O)(=O)Nc2ccccc2)c1)NO [belinostat]
UGT1A1 [1]; SN-38 glucuronidation by UGT1A1
  inhibition type: non-competitive
UGT1A1 [1]; belinostat 10 μmol/L, simulating oral dosing
  interaction with irinotecan (SN-38 glucuronidation): would not have significant interactions
UGT1A1 [1]; recombinant UGT1A1, belinostat 100 μmol/L vs no belinostat
  decrease of CLint: ~ 62%
UGT1A1 [1]; recombinant UGT1A1, belinostat 200 μmol/L vs no belinostat
  decrease of CLint: 81%
UGT1A1 [1]; recombinant UGT1A1, with belinostat (abstract: 100 and 200 µmol/L; lowest value, taken as 200 µmol/L)
  Vmax of SN-38 glucuronidation: 1.95 pmol/min/mg
[3]; belinostat 100 μmol/L vs none
  decrease of CLint: 56%
[3]; belinostat 200 μmol/L vs none
  decrease of CLint: 68%
[3]; HLMs wild type 6/6, with belinostat 200 µmol/L
  SN-38 glucuronidation activity (Vmax): 10.54 pmol/min/mg
[3]; SN-38 glucuronidation by HLMs (6/6)
  inhibition type: non-competitive inhibition
[7]; SN-38 glucuronidation by HLMs (6/7)
  inhibition type: non-competitive inhibition
[7]; UGT1A1*1*28 (6/7) HLMs vs wild type 6/6, both with belinostat 200 μmol/L
  decrease of SN-38G formation rate compared to wild type: ~ 64%
[7]; UGT1A1*1*28 (6/7) HLMs, belinostat 200 μmol/L vs none, p < 0.05
  decrease of CLint: 79%
[7]; UGT1A1*1*28 (6/7) HLMs, with belinostat 200 μmol/L
  rate of SN-38G formation (Vmax): 3.77 pmol/min/mg
[8]; SN-38 glucuronidation by HLMs (7/7)
  inhibition type: non-competitive inhibition
[8]; UGT1A1*28*28 (7/7) HLMs vs wild type 6/6, both with belinostat 200 μmol/L
  decrease of SN-38G formation rate compared to wild type: ~ 64% and ~ 68%
[8]; UGT1A1*28*28 (7/7) HLMs, belinostat 200 μmol/L vs none, p < 0.05
  decrease of CLint: 75%
[8]; UGT1A1*28*28 (7/7) HLMs, with belinostat 200 μmol/L
  rate of SN-38G formation (Vmax): 3.30 pmol/min/mg
[9]; high-dose intravenous administration
  Cmax: 200 µM
[9]; oral administration
  Cmax: 10 µM

## Cc1[nH]c2ccccc2c1CCNCc1ccc(/C=C/C(=O)NO)cc1 [panobinostat]
UGT1A1 [1]; UGT1A1, panobinostat 20 and 200 nmol/L, CLint increases insignificant (p > 0.05)
  inhibitory effect on SN-38 glucuronidation: not found to have any inhibitory effect
UGT1A6
  inhibitory effect on SN-38 glucuronidation: not found to have any inhibitory effect
UGT1A7
  inhibitory effect on SN-38 glucuronidation: not found to have any inhibitory effect
[9]; intravenous administration
  Cmax: 0.2 µM
[9]; oral administration
  Cmax: 0.02 µM

## O=C(CCCCCCC(=O)Nc1ccccc1)NO [vorinostat]
UGT1A9; vorinostat 2 µmol/L (therapeutic concentration)
  inhibition of UGT1A9 (SN-38 glucuronidation): no significant inhibition
